Key:
Experiment in all cases: Post-emergence herbicidal effect, greenhouse pot test
ECHCG = type: in vivo, Echinochloa crus-galli
Method in brief: (§1)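 Visual % activity scored roughly 3 weeks post-spray against untreated plants, where 100% means death and 0% equals control. Plants were treated at the one-leaf stage, 2 to 3 weeks after sowing in sandy loam, at 20 to 320 g/ha.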

AMARE = type: in vivo, Amaranthus retroflexus; conditions: visual rating about 3 weeks after treatment
Method in brief: as §1

ABUTH = type: in vivo, Abutilon theophrasti; conditions: visual rating about 3 weeks after treatment
Method in brief: as §1

PHBPU = type: in vivo, Ipomoea purpurea
Method in brief: as §1

ALOMY = type: in vivo, Alopecurus myosuroides; conditions: 320 g/ha, visual rating about 3 weeks after treatment
Method in brief: as §1

SETVI = type: in vivo, Setaria viridis
Method in brief: as §1

MATIN = type: in vivo, Tripleurospermum inodorum
Method in brief: as §1

VERPE = type: in vivo, Veronica persica
Method in brief: as §1

LOLRI = type: in vivo, Lolium rigidum
Method in brief: as §1

DIGSA = type: in vivo, Digitaria sanguinalis; conditions: visual rating about 3 weeks after treatment
Method in brief: as §1

KCHSC = type: in vivo
Method in brief: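 Greenhouse plants in sandy loam, sprayed post-emergence at the one-leaf stage (2–3 weeks after sowing) with WP or EC formulations in water plus 0.5% additive at 600 l/ha. Rates 20 to 320 g/ha. Activity rated visually after about 3 weeks against untreated controls (0% like control, 100% dead).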

AVEFA = type: in vivo, Avena fatua; conditions: visual rating about 3 weeks after treatment
Method in brief: as §1

VIOTR = type: in vivo, Viola tricolor
Method in brief: as §1

POLCO = type: in vivo, Fallopia convolvulus
Method in brief: as §1

CCOC(=O)C(OCC)Oc1nn(-c2ccccc2F)c(-c2ccc(F)nc2)c1Cl (stereo not shown) [Example I-50]
80%: pest or weed control at 320 g/ha (AMARE; Amaranthus retroflexus, 504 h, 320 g/ha, read-out: Post-emergence effect against AMARE) | pest or weed control at 80 g/ha (ABUTH; Abutilon theophrasti, 504 h, 80 g/ha, read-out: Post-emergence effect against ABUTH) | pest or weed control at 320 g/ha (ALOMY; Alopecurus myosuroides, 504 h, read-out: Post-emergence effect against ALOMY) | pest or weed control at 320 g/ha (MATIN; Tripleurospermum inodorum, 504 h, 320 g/ha, read-out: Post-emergence effect against MATIN in %) | pest or weed control at 320 g/ha (KCHSC; 504 h, 320 g/ha, read-out: Post-emergence effect against KCHSC in %) | pest or weed control at 80 g/ha (VIOTR; Viola tricolor, 504 h, 80 g/ha, read-out: Post-emergence effect against VIOTR in %) | pest or weed control at 320 g/ha (POLCO; Fallopia convolvulus, 504 h, 320 g/ha, read-out: Post-emergence effect against POLCO in %)
90%: pest or weed control at 20 g/ha (ECHCG; Echinochloa crus-galli, 504 h, 20 g/ha, visual rating about 3 weeks after treatment, read-out: Post-emergence effect against ECHCG) | pest or weed control at 80 g/ha (ECHCG; Echinochloa crus-galli, 504 h, 80 g/ha, read-out: Post-emergence effect against ECHCG in %) | pest or weed control at 320 g/ha (ECHCG; Echinochloa crus-galli, 504 h, 320 g/ha, read-out: Post-emergence effect against ECHCG in %) | pest or weed control at 320 g/ha (ABUTH; Abutilon theophrasti, 504 h, 320 g/ha, read-out: Post-emergence effect against ABUTH) | pest or weed control at 80 g/ha (PHBPU; Ipomoea purpurea, 504 h, 80 g/ha, read-out: Post-emergence effect against PHBPU in %) | pest or weed control at 320 g/ha (PHBPU; Ipomoea purpurea, 504 h, 320 g/ha, read-out: Post-emergence effect against PHBPU in %) | pest or weed control at 80 g/ha (SETVI; Setaria viridis, 504 h, 80 g/ha, read-out: Post-emergence effect against SETVI in %) | pest or weed control at 320 g/ha (SETVI; Setaria viridis, 504 h, 320 g/ha, read-out: Post-emergence effect against SETVI in %) | pest or weed control at 80 g/ha (VERPE; Veronica persica, 504 h, 80 g/ha, read-out: Post-emergence effect against VERPE in %) | pest or weed control at 320 g/ha (VERPE; Veronica persica, 504 h, 320 g/ha, read-out: Post-emergence effect against VERPE in %) | pest or weed control at 320 g/ha (LOLRI; Lolium rigidum, 504 h, 320 g/ha, read-out: Post-emergence effect against LOLRI in %) | pest or weed control at 320 g/ha (DIGSA; Digitaria sanguinalis, 504 h, 320 g/ha, read-out: Post-emergence effect against DIGSA) | pest or weed control at 320 g/ha (AVEFA; Avena fatua, 504 h, 320 g/ha, read-out: Post-emergence effect against AVEFA) | pest or weed control at 320 g/ha (VIOTR; Viola tricolor, 504 h, 320 g/ha, read-out: Post-emergence effect against VIOTR in %)

COC(Oc1nn(-c2ncccc2F)c(-c2cncc(F)c2)c1C1CC1)C(=O)O (stereo not shown) [Example I-84]
90%: Post-emergence effect against ECHCG (ECHCG; 20 g/ha, visual rating about 3 weeks after treatment) | Post-emergence effect against ECHCG in % (ECHCG; 80 g/ha) | Post-emergence effect against ECHCG in % (ECHCG; 320 g/ha) | Post-emergence effect against PHBPU in % (PHBPU; 80 g/ha) | Post-emergence effect against PHBPU in % (PHBPU; 320 g/ha) | Post-emergence effect against ALOMY (ALOMY) | Post-emergence effect against SETVI in % (SETVI; 80 g/ha) | Post-emergence effect against SETVI in % (SETVI; 320 g/ha) | Post-emergence effect against VERPE in % (VERPE; 80 g/ha) | Post-emergence effect against VERPE in % (VERPE; 320 g/ha) | Post-emergence effect against LOLRI in % (LOLRI; 320 g/ha) | pest or weed control at 80 g/ha (LOLRI; Lolium rigidum, 504 h, 80 g/ha, read-out: Post-emergence effect against LOLRI in %) | Post-emergence effect against DIGSA (DIGSA; 320 g/ha) | Post-emergence effect against KCHSC in % (KCHSC; 80 g/ha) | Post-emergence effect against KCHSC in % (KCHSC; 320 g/ha) | pest or weed control at 20 g/ha (KCHSC; 504 h, 20 g/ha, read-out: Post-emergence effect against KCHSC in %) | Post-emergence effect against AVEFA (AVEFA; 80 g/ha) | Post-emergence effect against AVEFA (AVEFA; 320 g/ha) | Post-emergence effect against VIOTR in % (VIOTR; 80 g/ha) | Post-emergence effect against VIOTR in % (VIOTR; 320 g/ha) | Post-emergence effect against POLCO in % (POLCO; 80 g/ha) | Post-emergence effect against POLCO in % (POLCO; 320 g/ha)
80%: Post-emergence effect against AMARE (AMARE; 320 g/ha) | pest or weed control at 80 g/ha (AMARE; Amaranthus retroflexus, 504 h, 80 g/ha, read-out: Post-emergence effect against AMARE) | Post-emergence effect against ABUTH (ABUTH; 80 g/ha) | Post-emergence effect against ABUTH (ABUTH; 320 g/ha) | pest or weed control at 20 g/ha (PHBPU; Ipomoea purpurea, 504 h, 20 g/ha, read-out: Post-emergence effect against PHBPU in %) | pest or weed control at 20 g/ha (SETVI; Setaria viridis, 504 h, 20 g/ha, read-out: Post-emergence effect against SETVI in %) | Post-emergence effect against MATIN in % (MATIN; 80 g/ha) | Post-emergence effect against MATIN in % (MATIN; 320 g/ha) | pest or weed control at 80 g/ha (DIGSA; Digitaria sanguinalis, 504 h, 80 g/ha, read-out: Post-emergence effect against DIGSA)
